# Experimental data published in PubChem BioAssay (NCI).
#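 Here, GI50 denotes the concentration required for 50% inhibition of growth. TGI is the concentration that stops growth completely.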
# Experiments:
# Experiment in all cases: NCI-60 cell line screen, 384-well format
# SK-MEL-2 melanoma = test system: SK-MEL-2 melanoma
# RPMI-8226 leukemia = test system: RPMI-8226 leukemia
# DU-145 prostate = test system: DU-145 prostate
# EKVX NSCLC = test system: EKVX NSCLC
# OVCAR-3 ovarian = test system: OVCAR-3 ovarian
# MDA-MB-435 melanoma = test system: MDA-MB-435 melanoma
# A498 renal = test system: A498 renal
# SK-OV-3 ovarian = test system: SK-OV-3 ovarian
# UO-31 renal = test system: UO-31 renal
# SF-295 CNS = test system: SF-295 CNS
# PC-3 prostate = test system: PC-3 prostate
# HT29 colon = test system: HT29 colon
# SNB-75 CNS = test system: SNB-75 CNS
SMILES,GI50 (SK-MEL-2 melanoma) [µM],TGI (SK-MEL-2 melanoma) [µM],GI50 (RPMI-8226 leukemia) [µM],TGI (RPMI-8226 leukemia) [µM],GI50 (DU-145 prostate) [µM],TGI (DU-145 prostate) [µM],GI50 (EKVX NSCLC) [µM],TGI (EKVX NSCLC) [µM],GI50 (OVCAR-3 ovarian) [µM],TGI (OVCAR-3 ovarian) [µM],GI50 (MDA-MB-435 melanoma) [µM],TGI (MDA-MB-435 melanoma) [µM],GI50 (A498 renal) [µM],TGI (A498 renal) [µM],GI50 (SK-OV-3 ovarian) [µM],TGI (SK-OV-3 ovarian) [µM],GI50 (UO-31 renal) [µM],TGI (UO-31 renal) [µM],GI50 (SF-295 CNS) [µM],TGI (SF-295 CNS) [µM],other results
NS(=O)(=O)NCCNc1nonc1C(=Nc1ccc(F)c(Br)c1)NO,20.1,47.1,17.6,35.2,48.2,> 100,31.8,> 100,24,76.8,42.5,> 100,4.27,> 80.2,10.9,> 100,36,> 100,11.7,> 78.6,GI50 (PC-3 prostate): 6.11 µM; TGI (PC-3 prostate): > 100 µM; GI50 (HT29 colon): 41 µM; TGI (HT29 colon): > 100 µM; GI50 (SNB-75 CNS): 21.4 µM; TGI (SNB-75 CNS): 60.2 µM
CC1(N)CCN(c2cnc(-c3cccc(Cl)c3Cl)c(N)n2)CC1,13.7,26.6,13.9,28.9,47,> 100,8.83,30.8,13.6,45.3,22.8,48,4.27,19.7,10.2,24.9,14.2,> 100,21.5,> 55.2,GI50 (PC-3 prostate): 21.4 µM; TGI (PC-3 prostate): > 60.4 µM; GI50 (HT29 colon): 18 µM; TGI (HT29 colon): 34.7 µM; GI50 (SNB-75 CNS): 12.3 µM; TGI (SNB-75 CNS): 38.2 µM
